According to patent US20240423992A1, “BIOMARKERS FOR TREATING LIVER DISORDERS WITH THR-B AGONISTS AND RELATED USES” (Madrigal Pharmaceuticals, Inc., priority 2023, published 2024):

Tested on: adults with nonalcoholic fatty liver disease (NAFLD)/presumed nonalcoholic steatohepatitis (NASH)
Test: 52-week Phase 3 trial (Example 1): thyroid hormone levels
Type: in vivo, human
Settings: for FT3 (not on thyroxine) LSM Difference / FT3 (thyroxine-treated) LSM Difference / FT3/rT3 (not on thyroxine) LSM Difference / FT3/rT3 (thyroxine-treated) LSM Difference / FT3/rT3 LSM Difference / FT3 LSM Difference / FT4 (not on thyroxine) LSM Difference in % CFB / FT4 (not on thyroxine) LSM Difference in CFB / FT4 (thyroxine-treated) LSM Difference in % CFB / FT4 (thyroxine-treated) LSM Difference in CFB / FT4 LSM Difference in % CFB / FT4 LSM Difference in CFB / TBG (not on thyroxine) LSM Difference / TBG (thyroxine-treated) LSM Difference / TBG LSM Difference / TSH (not on thyroxine) LSM Difference / TSH (thyroxine-treated) LSM Difference / TSH LSM Difference / rT3 (not on thyroxine) LSM Difference / rT3 (thyroxine-treated) LSM Difference / rT3 LSM Difference / FT3 (not on thyroxine) LSM CFB / FT3 (thyroxine-treated) LSM CFB / FT3/rT3 (not on thyroxine) LSM CFB / FT3/rT3 (thyroxine-treated) LSM CFB / FT3/rT3 LSM CFB / FT3 LSM CFB / FT4 (not on thyroxine) LSM % CFB / FT4 (not on thyroxine) LSM CFB / FT4 (thyroxine-treated) LSM % CFB / FT4 (thyroxine-treated) LSM CFB / FT4 LSM % CFB / FT4 LSM CFB / TBG (not on thyroxine) LSM CFB / TBG (thyroxine-treated) LSM CFB / TBG LSM CFB / TSH (not on thyroxine) LSM CFB / TSH (thyroxine-treated) LSM CFB / TSH LSM CFB / rT3 (not on thyroxine) LSM CFB / rT3 (thyroxine-treated) LSM CFB / rT3 LSM CFB: Week 52
Method: A 52-week randomized, double-blind, placebo-controlled Phase 3 trial was conducted to evaluate the safety and effect of resmetirom, an oral, once-daily, liver-targeted thyroid hormone receptor-β selective agonist, on multiple biomarkers in adults with nonalcoholic fatty liver disease (NAFLD)/presumed nonalcoholic steatohepatitis (NASH). Patients were randomized to three double-blind arms (100 mg resmetirom, 80 mg resmetirom, or placebo) or one open-label arm (100 mg resmetirom). Common concomitant medications across the 4 arms were antidiabetes drugs (such as glucagon-like peptide-1 receptor agonists (GLP-1 RAs), metformin, pioglitazone, and sodium/glucose cotransporter-2 inhibitors (SGLT2i)) and drugs to manage dyslipidemia (statins).
Sex hormone levels after 52 weeks of resmetirom treatment are shown in Table A. Thyroid hormone levels after 52 weeks of resmetirom treatment are reported in Table B.

[1] = Resmetirom 80 mg DB vs Placebo DB
[2] = Resmetirom 100 mg DB vs Placebo DB

## CC(C)c1cc(Oc2c(Cl)cc(-n3nc(C#N)c(=O)[nH]c3=O)cc2Cl)n[nH]c1=O [Resmetirom, 2-[3,5-dichloro-4-[(6-oxo-5-propan-2-yl-1H-pyridazin-3-yl)oxy]phenyl]-3,5-dioxo-1,2,4-triazine-6-carbonitrile]
[1]
  FT3 (not on thyroxine) LSM Difference: 0.1 ng/L
  FT3 (thyroxine-treated) LSM Difference: 0.0 ng/L
  FT3/rT3 (not on thyroxine) LSM Difference: 0.05
  FT3/rT3 (thyroxine-treated) LSM Difference: 0.03
  FT3/rT3 LSM Difference: 0.05
  FT3 LSM Difference: 0.1 ng/L
  FT4 (not on thyroxine) LSM Difference in % CFB: −11.0%
  FT4 (not on thyroxine) LSM Difference in CFB: -0.1 ng/dL
  FT4 (thyroxine-treated) LSM Difference in % CFB: −10.2%
  FT4 (thyroxine-treated) LSM Difference in CFB: -0.1 ng/dL
  FT4 LSM Difference in % CFB: −10.8%
  FT4 LSM Difference in CFB: -0.1 ng/dL
  TBG (not on thyroxine) LSM Difference: -1.2 mg/L
  TBG (thyroxine-treated) LSM Difference: -0.6 mg/L
  TBG LSM Difference: -1.1 mg/L
  TSH (not on thyroxine) LSM Difference: 0.0 mIU/L
  TSH (thyroxine-treated) LSM Difference: −0.3 mIU/L
  TSH LSM Difference: −0.0 mIU/L
  rT3 (not on thyroxine) LSM Difference: -3.3 ng/dL
  rT3 (thyroxine-treated) LSM Difference: -4.4 ng/dL
  rT3 LSM Difference: -3.4 ng/dL
Resmetirom 80 mg DB
  FT3 (not on thyroxine) LSM CFB: -0.1 ng/L
  FT3 (thyroxine-treated) LSM CFB: 0.0 ng/L
  FT3/rT3 (not on thyroxine) LSM CFB: 0.04
  FT3/rT3 (thyroxine-treated) LSM CFB: 0.03
  FT3/rT3 LSM CFB: 0.04
  FT3 LSM CFB: -0.0 ng/L
  FT4 (not on thyroxine) LSM % CFB: −9.9%
  FT4 (not on thyroxine) LSM CFB: -0.1 ng/dL
  FT4 (thyroxine-treated) LSM % CFB: −6.4%
  FT4 (thyroxine-treated) LSM CFB: -0.1 ng/dL
  FT4 LSM % CFB: −9.6%
  FT4 LSM CFB: -0.1 ng/dL
  TBG (not on thyroxine) LSM CFB: -0.5 mg/L
  TBG (thyroxine-treated) LSM CFB: 1.5 mg/L
  TBG LSM CFB: 0.6 mg/L
  TSH (not on thyroxine) LSM CFB: −0.3 mIU/L
  TSH (thyroxine-treated) LSM CFB: −0.9 mIU/L
  TSH LSM CFB: −0.4 mIU/L
  rT3 (not on thyroxine) LSM CFB: -2.5 ng/dL
  rT3 (thyroxine-treated) LSM CFB: -3.8 ng/dL
  rT3 LSM CFB: -2.7 ng/dL
[2]
  FT3 (not on thyroxine) LSM Difference: 0.0 ng/L
  FT3 (thyroxine-treated) LSM Difference: -0.0 ng/L
  FT3/rT3 (not on thyroxine) LSM Difference: 0.05
  FT3/rT3 (thyroxine-treated) LSM Difference: 0.04
  FT3/rT3 LSM Difference: 0.05
  FT3 LSM Difference: 0.0 ng/L
  FT4 (not on thyroxine) LSM Difference in % CFB: −15.4%
  FT4 (not on thyroxine) LSM Difference in CFB: -0.2 ng/dL
  FT4 (thyroxine-treated) LSM Difference in % CFB: −23.0%
  FT4 (thyroxine-treated) LSM Difference in CFB: -0.3 ng/dL
  FT4 LSM Difference in % CFB: −16.1%
  FT4 LSM Difference in CFB: -0.2 ng/dL
  TBG (not on thyroxine) LSM Difference: -0.3 mg/L
  TBG (thyroxine-treated) LSM Difference: -2.4 mg/L
  TBG LSM Difference: -0.5 mg/L
  TSH (not on thyroxine) LSM Difference: −0.1 mIU/L
  TSH (thyroxine-treated) LSM Difference: 0.0 mIU/L
  TSH LSM Difference: −0.1 mIU/L
  rT3 (not on thyroxine) LSM Difference: -3.8 ng/dL
  rT3 (thyroxine-treated) LSM Difference: -5.5 ng/dL
  rT3 LSM Difference: -3.9 ng/dL
Resmetirom 100 mg DB
  FT3 (not on thyroxine) LSM CFB: -0.1 ng/L
  FT3 (thyroxine-treated) LSM CFB: -0.0 ng/L
  FT3/rT3 (not on thyroxine) LSM CFB: 0.04
  FT3/rT3 (thyroxine-treated) LSM CFB: 0.04
  FT3/rT3 LSM CFB: 0.04
  FT3 LSM CFB: -0.1 ng/L
  FT4 (not on thyroxine) LSM % CFB: −14.3%
  FT4 (not on thyroxine) LSM CFB: -0.2 ng/dL
  FT4 (thyroxine-treated) LSM % CFB: −19.2%
  FT4 (thyroxine-treated) LSM CFB: -0.2 ng/dL
  FT4 LSM % CFB: −14.9%
  FT4 LSM CFB: -0.2 ng/dL
  TBG (not on thyroxine) LSM CFB: 1.4 mg/L
  TBG (thyroxine-treated) LSM CFB: -0.2 mg/L
  TBG LSM CFB: 1.1 mg/L
  TSH (not on thyroxine) LSM CFB: −0.3 mIU/L
  TSH (thyroxine-treated) LSM CFB: −0.6 mIU/L
  TSH LSM CFB: −0.4 mIU/L
  rT3 (not on thyroxine) LSM CFB: -2.9 ng/dL
  rT3 (thyroxine-treated) LSM CFB: -4.9 ng/dL
  rT3 LSM CFB: -3.2 ng/dL
Resmetirom 100 mg OL
  FT3 (not on thyroxine) LSM CFB: -0.1 ng/L
  FT3 (thyroxine-treated) LSM CFB: -0.1 ng/L
  FT3/rT3 (not on thyroxine) LSM CFB: 0.05
  FT3/rT3 (thyroxine-treated) LSM CFB: 0.03
  FT3/rT3 LSM CFB: 0.04
  FT3 LSM CFB: -0.2 ng/L
  FT4 (not on thyroxine) LSM % CFB: −18.9%
  FT4 (not on thyroxine) LSM CFB: -0.2 ng/dL
  FT4 (thyroxine-treated) LSM % CFB: −14.8%
  FT4 (thyroxine-treated) LSM CFB: -0.2 ng/dL
  FT4 LSM % CFB: −16.1%
  FT4 LSM CFB: -0.2 ng/dL
  TBG (not on thyroxine) LSM CFB: 0.7 mg/L
  TBG (thyroxine-treated) LSM CFB: -1.0 mg/L
  TBG LSM CFB: 0.1 mg/L
  TSH (not on thyroxine) LSM CFB: −0.2 mIU/L
  TSH (thyroxine-treated) LSM CFB: 0.4 mIU/L
  TSH LSM CFB: 0.2 mIU/L
  rT3 (not on thyroxine) LSM CFB: -3.5 ng/dL
  rT3 (thyroxine-treated) LSM CFB: -3.9 ng/dL
  rT3 LSM CFB: -3.3 ng/dL
Resmetirom arms
  effect on active hormone free triiodothyronine (FT3): No effects
  effect on thyroid-stimulating hormone (TSH): No effects
  prohormone FT4 levels, change from baseline: Minimal reductions from baseline
